Laboratory results reported in patent US9783524B2, “Protein tyrosine kinase modulators and methods of use” (BETTA PHARMACEUTICALS CO., LTD., priority 2013, dated 2017).

Assays:
Type in all cases: biochemical, human
Conditions in all cases: 0.1 μM test compound, 10 μM ATP; remaining activity relative to DMSO control = 100%
EGFR (h) = tested on: EGFR (h)
Method: (§1) Assay conditions included 10 μM ATP and 100 nM test compounds.
(§2) All reactions are initiated by the addition of the MgATP mix. After incubation for 40 minutes at room temperature, the reaction is stopped by the addition of 3% phosphoric acid solution. 10 μL of the reaction is then spotted onto a P30 filtermat and washed three times for 5 minutes in 75 mM phosphoric acid and once in methanol prior to drying and scintillation counting. […] The experiment is carried out in duplicate. The value for the control sample (DMSO) was set to 100%, and the values for the compound-treated samples were expressed as activity relative to the control sample.
(§3) (specific activity approx. 500 cpm/pmol, concentration as required) and 0.1 μM test compound.

EGFR (L858R) (h) = tested on: EGFR (L858R) (h)
Method: as §1, §2, §3

ALK (h) = tested on: ALK (h)
Method: as §1
(§4) All reactions are initiated by the addition of the MgATP mix. After incubation for 40 minutes at room temperature, the reaction is stopped by the addition of 3% phosphoric acid solution. 10 μL of the reaction is then spotted onto a P30 filtermat and washed three times for 5 minutes in 75 mM phosphoric acid and once in methanol prior to drying and scintillation counting. This assay is performed by Millipore. The experiment is carried out in duplicate. The value for the control sample (DMSO) was set to 100%, and the values for the compound-treated samples were expressed as activity relative to the control sample.

EGFR (T790M, L858R) (h) = tested on: EGFR (T790M, L858R) (h)
Method: as §1, §2, §3

EGFR (T790M) (h) = tested on: EGFR (T790M) (h)
Method: as §1, §4

Compound | Activity (control) % EGFR (h) (EGFR (h)) [%] | Activity (control) % EGFR (L858R) (h) (EGFR (L858R) (h)) [%] | Activity (control) % ALK (h) (ALK (h)) [%] | Activity (control) % EGFR (T790M, L858R) (h) (EGFR (T790M, L858R) (h)) [%] | Activity (control) % EGFR (T790M) (h) (EGFR (T790M) (h)) [%]
COc1ccc(NC(=O)/C=C/CN2CCOCC2)cc1Nc1ncc(Cl)c(Nc2ccccc2C(=O)C(=O)N(C)C)n1 [Example 79, (E)-N-(3-(5-chloro-4-(2-(2-(dimethylamino)-2-oxoacetyl)phenylamino)pyrimidin-2-ylamino)-4-methoxyphenyl)-4-morpholinobut-2-enamide] | 92 | 25 | 7 | 2 | 16
C=CC(=O)Nc1ccc(OC)c(Nc2ncc(Cl)c(Nc3ccccc3C(=O)C(=O)N3CCN(C)CC3)n2)c1 [Example 89, N-(3-(5-chloro-4-(2-(2-(4-methylpiperazin-1-yl)-2-oxoacetyl)phenylamino)pyrimidin-2-ylamino)-4-methoxyphenyl)acrylamide] | 67 | 10 | 8 | 1 | 5
COc1cc(Nc2ncc(Cl)c(Nc3ccccc3C(=O)C(=O)N(C)C)n2)ccc1N1CCN(C(C)=O)CC1 [Example 94, 2-(2-(2-(4-(4-acetylpiperazin-1-yl)-3-methoxyphenylamino)-5-chloropyrimidin-4-ylamino)phenyl)-N,N-dimethyl-2-oxoacetamide] | 100 | 84 | 6 | 9 | 45
C=C(CN1CCCC1)C(=O)Nc1ccc(OC)c(Nc2ncc(Cl)c(Nc3ccccc3C(=O)C(=O)N(C)C)n2)c1 [Example 97, N-(3-(5-chloro-4-(2-(2-(dimethylamino)-2-oxoacetyl)phenylamino)pyrimidin-2-ylamino)-4-methoxyphenyl)-2-(pyrrolidin-1-ylmethyl)acrylamide] | 74 | 46 | 23 | 6 | 2
C=CC(=O)Nc1cc(Nc2ncc(C)c(Nc3ccccc3C(=O)C(=O)N(C)C)n2)ccc1OC [Example 101, N-(5-(4-(2-(2-(dimethylamino)-2-oxoacetyl)phenylamino)-5-methylpyrimidin-2-ylamino)-2-methoxyphenyl)acrylamide] | 110 | 94 | 35 | 41 | 83
C=CC(=O)Nc1cc(Nc2ncc(Cl)c(Nc3ccccc3C(=O)C(=O)N(C)CCN(C)C)n2)ccc1OC [Example 102, N-(5-(5-chloro-4-(2-(2-((2-(dimethylamino)ethyl)(methyl)amino)-2-oxoacetyl)phenylamino)pyrimidin-2-ylamino)-2-methoxyphenyl)acrylamide] | 98 | 57 | 5 | 5 | 40
C=C(CN1CCCCC1)C(=O)Nc1cccc(Nc2ncc(Cl)c(Nc3ccccc3C(=O)C(=O)N(C)C)n2)c1 [Example 113, N-(3-(5-chloro-4-(2-(2-(dimethylamino)-2-oxoacetyl)phenylamino)pyrimidin-2-ylamino)phenyl)-2-(piperidin-1-ylmethyl)acrylamide] | 88 | 78 | 19 | 3 | 16
CN(C)C/C=C/C(=O)Nc1cccc(Nc2ncc(Cl)c(Nc3ccccc3C(=O)C(=O)N(C)C)n2)c1 [Example 114, (E)-N-(3-(5-chloro-4-(2-(2-(dimethylamino)-2-oxoacetyl)phenylamino)pyrimidin-2-ylamino)phenyl)-4-(dimethylamino)but-2-enamide] | 91 | 52 | 10 | 8 | 47
